Source: paper PMC7668297 (Journal of medicinal chemistry, 2020)
“Also recorded” adds a separate entry of the source.

Experiments:
[1] = test system: A549 cells; test: cells; settings: Homo sapiens, A549, 72 h, read-out: Cell proliferation IC50 ± SD
[2] = test system: HeLa cells; test: cells; settings: Homo sapiens, 72 h, read-out: Cell proliferation IC50 ± SD
[3] = test system: MCF7 cells; test: cells; settings: Homo sapiens, MCF7, 72 h, read-out: Cell proliferation IC50 ± SD
[4] = test system: A375 cells; test: cells; settings: Homo sapiens, A-375, 72 h, read-out: Cell proliferation IC50 ± SD
[5] = test system: G-361 cells; test: cells; settings: Homo sapiens, G-361, 72 h, read-out: Cell proliferation IC50 ± SD
[6] = target: T1, human topoIIα (Homo sapiens, UniProt P11388); test: DNA relaxation catalyzed by human topoIIα; format: biochemical; settings: ratio of DNA relaxation IC50 values
[7] = target: human topoIIβ (Homo sapiens, UniProt Q02880); test: DNA relaxation catalyzed by human topoIIβ; format: biochemical
[8] = target: T1, human topoIIα; test: DNA cleavage assay; format: biochemical; settings: 0-200 µM compound
[9] = test system: relaxed pBR322 DNA; test: DNA intercalation; format: binding; settings: 0-25 µM compound
[10] = target: T1, human topoIIα; test: ATP hydrolysis; format: biochemical; settings: 0-25 µM compound
[11] = test system: H2AX phosphorylation in HeLa cells; test: Immunodetection of H2AX phosphorylation; format: cell-based, human; settings: 90 minutes, at IC50 concentration
[12] = test system: set of 47 proteins; test: Off-target safety profiling; settings: tested at 2 µM
[13] = target: hERG channel (Homo sapiens, UniProt Q12809); test: Off-target safety profiling, hERG channel; settings: tested at 2 µM
[14] = mouse, in vivo, ip, 10 mg/kg

Compound: NC1CCc2nc(-c3ccncc3)nc(Nc3cccc(F)c3)c2C1 (stereo not shown) [Compound 1, N4-(3-fluorophenyl)-2-(4-pyridyl)-5,6,7,8-tetrahydroquinazoline-4,6-diamine]
- IC50 [1]: 19.4 ± 1.8 µM
- IC50 [2]: 17 ± 1.9 µM
- IC50 [3]: 13.9 ± 2.3 µM
- IC50 [4]: 9.9 ± 0.1 µM
- IC50 [5]: 1.4 ± 0.4 µM

Compound: N[C@H]1CCc2nc(-c3ccncc3)nc(Nc3cccc(F)c3)c2C1 [Compound 3, (6R)-N4-(3-fluorophenyl)-2-(4-pyridyl)-5,6,7,8-tetrahydroquinazoline-4,6-diamine]
- IC50 [1]: 23.3 ± 2.3 µM
- IC50 [2]: 17.1 ± 3.2 µM
- IC50 [3]: 14.2 ± 2.5 µM
- IC50 [4]: 10.7 ± 0.1 µM

Compound: N[C@@H]1CCc2nc(-c3ccncc3)nc(Nc3cccc(F)c3)c2C1 [Compound 4, (6S)-N4-(3-fluorophenyl)-2-(4-pyridyl)-5,6,7,8-tetrahydroquinazoline-4,6-diamine]
- IC50 [1]: 17.8 ± 0.6 µM
- IC50 [2]: 21.8 ± 4.6 µM
- IC50 [3]: 16.2 ± 2.6 µM
- IC50 [4]: 10.8 ± 0.1 µM
- IC50 [5]: 1.8 ± 0.6 µM

Compound: NC1CCc2nc(-c3ccncc3)nc(Nc3ccc(F)cc3)c2C1 (stereo not shown) [Compound 10, N4-(4-fluorophenyl)-2-(4-pyridyl)-5,6,7,8-tetrahydroquinazoline-4,6-diamine]
- IC50 [1]: 22.9 ± 6.5 µM
- IC50 [2]: 20.8 ± 4.5 µM
- IC50 [3]: 16 ± 0.5 µM
- IC50 [4]: 12.3 ± 1.8 µM
- IC50 [5]: 3 ± 0.7 µM

Compound: COc1cccc(Nc2nc(-c3ccncc3)nc3c2CC(N)CC3)c1 (stereo not shown) [Compound 11, N4-(3-methoxyphenyl)-2-(4-pyridyl)-5,6,7,8-tetrahydroquinazoline-4,6-diamine]
- IC50 [1]: 18 ± 0.1 µM
- IC50 [2]: 17.2 ± 2.6 µM
- IC50 [3]: 15.8 ± 1.4 µM
- IC50 [4]: 15.1 ± 4.8 µM
- IC50 [5]: 6.6 ± 3.1 µM

Compound: CN(C)c1ccc(Nc2nc(-c3ccncc3)nc3c2CC(N)CC3)cc1 (stereo not shown) [Compound 14, N4-[4-(dimethylamino)phenyl]-2-(4-pyridyl)-5,6,7,8-tetrahydroquinazoline-4,6-diamine]
- specificity for topoIIα over topoIIβ [6]: ~ 50 fold
- IC50 [7]: ~100 µM
- ability to increase enzyme-mediated DNA cleavage [8]: no ability to increase levels of enzyme-mediated DNA cleavage
- DNA intercalation [9]: did not show this behavior; also recorded: does not intercalate into DNA
- inhibition of topoIIα-catalyzed ATP hydrolysis ([10]; in the absence of DNA): none
- inhibition of topoIIα-catalyzed ATP hydrolysis ([10]; in the presence of DNA): little ability to inhibit
- phosphorylation of H2AX (reporter of DNA damage) [11]: did not induce the phosphorylation of H2AX
- off-target activity (agonist and antagonist) on 47 proteins [12]: no noteworthy activity
- activity vs the hERG channel [13]: no noteworthy activity
- brain penetration [14]: able to reach the brain
- IC50 [1]: 17.1 ± 8.7 µM
- IC50 [2]: 38.2 ± 9.1 µM
- IC50 [3]: 15.8 ± 1.3 µM
- IC50 [4]: 12.6 ± 0.7 µM
- IC50 [5]: 8.1 ± 2.9 µM

Compound: COc1cc([C@@H]2c3cc4c(cc3[C@@H](O[C@@H]3O[C@@H]5CO[C@@H](C)O[C@H]5[C@H](O)[C@H]3O)[C@H]3COC(=O)[C@H]23)OCO4)cc(OC)c1O [Etoposide, etoposide, reference compound]
- IC50 [1]: 2.4 ± 2 µM
- IC50 [3]: 8.9 ± 1.6 µM
- IC50 [4]: 0.5 ± 0.1 µM
- IC50 [5]: 3.8 ± 3 µM
